Assay results taken from PMC10235687, “Venetoclax is a potent hepsin inhibitor that reduces the metastatic and prothrombotic phenotypes of hepsin-expressing colorectal cancer cells” (Frontiers in Molecular Biosciences, 2023).

Target: T1, Hepsin (Homo sapiens, UniProt P05981)
T1 construct: gene HPN; Recombinant hepsin (R&D Systems)
Assay: Fluorogenic protease assay with recombinant hepsin ([…]) and BOC-Gln-Arg-Arg-AMC ([…]), pH […] h incubation with drug
Assay type: biochemical

T1 sequence (P05981 45-162 limits assumed): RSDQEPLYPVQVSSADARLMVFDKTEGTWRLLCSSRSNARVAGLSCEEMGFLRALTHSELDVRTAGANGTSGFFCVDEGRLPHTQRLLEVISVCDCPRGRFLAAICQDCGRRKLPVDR
T1 sequence (P05981 163-417 limits assumed): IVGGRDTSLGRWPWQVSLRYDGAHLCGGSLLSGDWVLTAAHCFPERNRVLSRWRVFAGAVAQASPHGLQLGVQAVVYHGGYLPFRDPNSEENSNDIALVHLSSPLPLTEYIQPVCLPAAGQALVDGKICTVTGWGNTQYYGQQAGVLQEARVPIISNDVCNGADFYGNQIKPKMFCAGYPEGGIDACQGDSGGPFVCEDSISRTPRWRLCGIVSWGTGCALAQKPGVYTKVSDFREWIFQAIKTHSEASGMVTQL

SMILES: CC1(C)CCC(CN2CCN(c3ccc(C(=O)NS(=O)(=O)c4ccc(NCC5CCOCC5)c([N+](=O)[O-])c4)c(Oc4cnc5[nH]ccc5c4)c3)CC2)=C(c2ccc(Cl)cc2)C1 [Venetoclax]
- IC50: 480 nM
